Our source for the Km values is publication PMC5414976, “Reduction of reactive red 241 by oxygen insensitive azoreductase purified from a novel strain Staphylococcus KU898286” (PLoS ONE, 2017).

The test has as its system T1, azoreductase.
T1 construct: native enzyme purified from strain S1 cells (sonication, ammonium sulphate, Sephadex G-100); 29 kDa by SDS-PAGE
In words: dye decolourisation at […] nm, Lineweaver-Burk. Format: biochemical, Staphylococcus aureus.

Consider `NC(=O)C1=CN([C@@H]2O[C@H](COP(=O)(O)OP(=O)(O)OC[C@H]3O[C@@H](n4cnc5c(N)ncnc54)[C@H](O)[C@@H]3O)[C@@H](O)[C@H]2O)C=CC1` [NADH], for which, for the setting “0.5 mM RR241, NADH varied”, the Km worked out at 1020 µM. Take `O=S(=O)(O)OCCS(=O)(=O)c1ccc(Nc2nc(Cl)nc(Nc3cc(S(=O)(=O)O)cc4cc(S(=O)(=O)O)c(N=Nc5ccc6c(S(=O)(=O)O)cccc6c5S(=O)(=O)O)c(O)c34)n2)cc1` [RR241, reactive red 241]: the Km (constant NADH 1 mM (text; legend of Fig 4a says absence of NADH)) came out at 1540 µM.

What is called Km is the substrate concentration at which the rate is half of its maximum.
